Measurements from paper PMC5431190, “Investigation of cationicity and structure of pseudin-2 analogues for enhanced bacterial selectivity and anti-inflammatory activity” (Scientific Reports, 2017).
In brackets after ≈: the same amount, converted by molar mass. Residues, ends and D or L forms follow the SMILES beside them.

Tests used:
[1] = tested on: mouse bone marrow-derived dendritic cells; conditions: 50 μM peptide, MTT, 18 h at 37 °C
[2] = tested on: S. aureus 3089(R) (MRSA 3089); format: cell-based, Staphylococcus aureus; conditions: multidrug-resistant strain; 1% peptone media, 16 h at 37 °C
[3] = tested on: S. aureus 3126(R) (MRSA 3126); format: cell-based, Staphylococcus aureus; conditions: multidrug-resistant strain; 1% peptone media, 16 h at 37 °C
[4] = tested on: Staphylococcus aureus KCTC 1621; format: cell-based; conditions: KCTC 1621, 16 h
Text: (§1) Four Gram-negative bacteria species (Escherichia coli KCTC 1682, Acinetobacter baumannii KCTC 2508, Pseudomonas aeruginosa KCTC 1637 and Salmonella typhimurium KCTC 1926) and three Gram-positive bacteria species (Staphylococcus aureus KCTC 1621, Bacillus subtilis KCTC 3028 and Staphylococcus epidermidis KCTC 1917) were procured from the Korean Collection for Type Cultures (KCTC). Multi-drug-resistant Gram-negative bacteria (Salmonella typhimurium CCARM 8003 and 8007, Escherichia coli CCARM 1229 and 1238, Pseudomonas aeruginosa CCARM 2002 and 2095 and Acinetobacter baumannii CCARM 12035 and 12036) were obtained from the Culture Collection of Antibiotic-Resistant Microbes (CCARM). To determine MICs, bacteria were cultured in Luria-Bertani (LB) medium for overnight at 37 °C. An aliquot of the culture was incubated in 1% peptone media at 37 °C until mid-log phase. 100 μl of serial 2-fold diluted peptides were treated in 96 well plates and added to 100 μl of 2 × 10^6 CFU/ml bacterial suspensions in 1% peptone media for 16 h at 37 °C.

[5] = tested on: Acinetobacter baumannii CCARM 12036 (MDRAB 12036); format: cell-based; conditions: multidrug-resistant strain; 1% peptone media, 16 h at 37 °C
Text: as §1

[6] = tested on: Salmonella typhimurium CCARM 8003 (MDRST 8003); format: cell-based; conditions: multidrug-resistant strain; 1% peptone media, 16 h at 37 °C
Text: as §1

[7] = tested on: Staphylococcus epidermidis KCTC 1917; format: cell-based; conditions: KCTC 1917, 16 h
Text: as §1

[8] = tested on: Gram-negative bacteria (E. coli, A. baumannii, P. aeruginosa, S. typhimurium); format: cell-based; conditions: 16 h
Text: as §1

[9] = tested on: Pseudomonas aeruginosa CCARM 2002 (MDRPA 2002); format: cell-based; conditions: multidrug-resistant strain; 1% peptone media, 16 h at 37 °C
Text: as §1

[10] = tested on: Pseudomonas aeruginosa KCTC 1637; format: cell-based; conditions: KCTC 1637, 16 h
Text: as §1

[11] = tested on: Salmonella typhimurium CCARM 8007 (MDRST 8007); format: cell-based; conditions: multidrug-resistant strain; 1% peptone media, 16 h at 37 °C
Text: as §1

[12] = tested on: Acinetobacter baumannii CCARM 12035 (MDRAB 12035); format: cell-based; conditions: multidrug-resistant strain; 1% peptone media, 16 h at 37 °C
Text: as §1

[13] = tested on: Escherichia coli CCARM 1229 (MDREC 1229); format: cell-based; conditions: multidrug-resistant strain; 1% peptone media, 16 h at 37 °C
Text: as §1

[14] = tested on: Bacillus subtilis KCTC 3028; format: cell-based; conditions: KCTC 3028, 16 h
Text: as §1

[15] = tested on: Pseudomonas aeruginosa CCARM 2095 (MDRPA 2095); format: cell-based; conditions: multidrug-resistant strain; 1% peptone media, 16 h at 37 °C
Text: as §1

[16] = tested on: Acinetobacter baumannii KCTC 2508; format: cell-based; conditions: KCTC 2508, 16 h
Text: as §1

[17] = tested on: Escherichia coli CCARM 1238 (MDREC 1238); format: cell-based; conditions: multidrug-resistant strain; 1% peptone media, 16 h at 37 °C
Text: as §1

[18] = tested on: Escherichia coli KCTC 1682; format: cell-based; conditions: KCTC 1682, 16 h
Text: as §1

[19] = tested on: Gram-positive bacteria (S. aureus, B. subtilis, S. epidermidis); format: cell-based; conditions: 16 h
Text: as §1

[20] = tested on: Salmonella typhimurium KCTC 1926; format: cell-based; conditions: KCTC 1926, 16 h
Text: as §1

[21] = tested on: S. aureus 3108(R) (MRSA 3108); format: cell-based, Staphylococcus aureus; conditions: multidrug-resistant strain; 1% peptone media, 16 h at 37 °C
[22] = tested on: mouse macrophage RAW264.7 cells; conditions: 50 μM peptide, MTT, 18 h at 37 °C
[23] = tested on: human red blood cells (hRBCs); test: Haemolytic activity; format: cell-based; conditions: red cells of human, 1 h
Method: Peptide-induced lysis of human red blood cells (hRBCs) was determined as follows. Fresh hRBCs were washed 2–3 times with phosphate-buffered saline (PBS) by centrifugation for 5 min at 2500 rpm at 4 °C. Peptides in PBS were incubated with 4% (v/v) hRBCs for 1 h at 37 °C. Samples were then centrifuged for 5 min at 1000 × g. The absorbance of the supernatant at 405 nm was used as a measure of haemolysis. As a positive control, 100% haemolysis was obtained by treating hRBCs with 0.1% Triton X-100.

[24] = LPS neutralization (LAL assay); format: biochemical
Method: LPS neutralization by the peptides were measured using LAL-QCL-1000^TM (Lonza, USA) kit using a modified protocol as described previously. The interaction between each peptide and FITC-LPS was monitored according to the change in fluorescence intensity (excitation = 480 nm, emission = 515 nm). Peptides and 0.5 μg/ml FITC-LPS were prepared in 10 mM phosphate buffer (pH 6.0). The binding between rhTLR4 (from R&D systems, Minneapolis, USA) or rhMD2 (R&D systems, Minneapolis, USA) and peptides was determined using the BLItz system (ForteBio, Menlo Park, CA)[53]. A Ni-NTA sensor was used to detect rhTLR4 and rhMD2 binding. Before the binding assay, the biosensor was hydrated for 10 min in PBS. An initial baseline of 15 s, loading for 60 s, baseline for 30 s, association for 60 s and dissociation for 60 s were used for measurement.

[25] = biological target: T1, rhTLR4 (recombinant human Toll-like receptor 4) (human, UniProt O00206 24-631); test: BLI; BLItz system (ForteBio); rhTLR4 loaded on a Ni-NTA sensor, various amounts of peptide applied; biosensor hydrated 10 min in PBS; baseline 15 s, loading 60 s, baseline 30 s, association 60 s, dissociation 60 s; conditions: both partners purified
T1 construct: Toll-like receptor 4, recombinant human (rhTLR4), bought; No catalogue number is printed; source: bought: R&D systems, Minneapolis, USA
T1 sequence (O00206 24-631): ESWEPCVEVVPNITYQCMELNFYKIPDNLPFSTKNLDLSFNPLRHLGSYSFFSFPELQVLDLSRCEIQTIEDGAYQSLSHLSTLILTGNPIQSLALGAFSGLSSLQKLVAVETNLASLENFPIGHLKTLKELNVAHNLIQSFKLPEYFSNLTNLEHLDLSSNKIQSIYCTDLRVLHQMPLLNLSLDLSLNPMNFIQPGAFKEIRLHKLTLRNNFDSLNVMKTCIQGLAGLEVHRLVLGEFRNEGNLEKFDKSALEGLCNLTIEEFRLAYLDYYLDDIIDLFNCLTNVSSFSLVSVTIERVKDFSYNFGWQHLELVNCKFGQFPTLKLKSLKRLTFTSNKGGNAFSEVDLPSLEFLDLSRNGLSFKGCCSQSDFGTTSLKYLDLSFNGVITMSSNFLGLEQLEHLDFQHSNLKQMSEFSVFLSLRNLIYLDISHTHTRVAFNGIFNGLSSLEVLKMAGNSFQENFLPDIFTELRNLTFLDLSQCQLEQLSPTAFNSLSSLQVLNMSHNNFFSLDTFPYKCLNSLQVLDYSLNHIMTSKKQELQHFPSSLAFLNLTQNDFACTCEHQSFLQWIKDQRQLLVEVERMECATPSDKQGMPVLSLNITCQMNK

Q: Which results are given for `CC[C@H](C)[C@H](NC(=O)CNC(=O)[C@H](CCC(N)=O)NC(=O)[C@H](Cc1ccccc1)NC(=O)[C@@H](NC(=O)[C@H](CCCCN)NC(=O)[C@H](CCCCN)NC(=O)[C@H](CC(C)C)NC(=O)[C@H](C)NC(=O)[C@H](CC(N)=O)NC(=O)[C@H](CC(C)C)NC(=O)CN)C(C)C)C(=O)N[C@@H](Cc1c[nH]cn1)C(=O)N[C@@H](CCC(=O)O)C(=O)N[C@@H](C)C(=O)N[C@H](C(=O)N[C@@H](CCCCN)C(=O)N[C@@H](CC(C)C)C(=O)N[C@H](C(=O)N[C@@H](CC(N)=O)C(=O)N[C@@H](CC(N)=O)C(=O)N[C@@H](Cc1c[nH]cn1)C(=O)N[C@H](C(=O)N[C@@H](CCC(N)=O)C(=O)O)C(C)C)[C@@H](C)CC)[C@@H](C)CC` [Ps, Pseudin-2] (H-GLNALKKVFQGIHEAIKLINNHVQ-OH)?
A: survival of dendritic cells [1]: 44%; MIC, MRSA 3089 [2]: 4 µM (≈ 10.7 µg/mL); MIC, MRSA 3126 [3]: 4 µM (≈ 10.7 µg/mL); MIC, S. aureus [4]: 4 µM (≈ 10.7 µg/mL); MIC, MDRAB 12036 [5]: 2 µM (≈ 5.37 µg/mL); MIC, MDRST 8003 [6]: 4 µM (≈ 10.7 µg/mL); MIC, S. epidermidis [7]: 4 µM (≈ 10.7 µg/mL); Average MIC, Gram-negative [8]: 1.5 µM; MIC, MDRPA 2002 [9]: 2 µM (≈ 5.37 µg/mL); MIC, P. aeruginosa [10]: 2 µM (≈ 5.37 µg/mL); MIC, MDRST 8007 [11]: 2 µM (≈ 5.37 µg/mL); MIC, MDRAB 12035 [12]: 1 µM (≈ 2.69 µg/mL); MIC, MDREC 1229 [13]: 2 µM (≈ 5.37 µg/mL); MIC, B. subtilis [14]: 4 µM (≈ 10.7 µg/mL); MIC, MDRPA 2095 [15]: 2 µM (≈ 5.37 µg/mL); MIC, A. baumannii [16]: 1 µM (≈ 2.69 µg/mL); MIC, MDREC 1238 [17]: 1 µM (≈ 2.69 µg/mL); MIC, E. coli [18]: 1 µM (≈ 2.69 µg/mL); Average MIC, Gram-positive [19]: 4 µM; MIC, S. typhimurium [20]: 2 µM (≈ 5.37 µg/mL); MIC, MRSA 3108 [21]: 4 µM (≈ 10.7 µg/mL); survival of RAW264.7 cells [22]: 56%; MHC (minimal peptide concentration that produces haemolysis) [23]: 25 µM; haemolysis at 100 μM [23]; 100: approximately 23%

Q: Which “LPS neutralization (control peptide)” value [24] does the source give for LL-37 here?
A: high LPS neutralization

B1: Ps-K18 (peptide)
peptide: GLNALKKVFQGIHEAIKKINNHVQ
notes: source: synthetic peptide (solid-phase, Fmoc; reversed-phase HPLC, purity >95%)
Q: Which Kd [25] does the source give for B1 here?
A: 1.5 µM

B2: Pseudin-2 (peptide)
peptide: GLNALKKVFQGIHEAIKLINNHVQ
notes: as for B1
Q: Which Kd [25] does the source give for B2 here?
A: 0.8 µM

B3: Ps-K14-K18 (peptide)
peptide: GLNALKKVFQGIHKAIKKINNHVQ
notes: as for B1
Q: For B3, which Kd [25] is on record?
A: 6.9 µM
